Reference: patent publication US20010006656A1, “METHODS AND COMPOSITIONS FOR INHIBITING INFLAMMATION ASSOCIATED WITH PULMONARY DISEASE” (UNIVERSITY OF WASHINGTON, priority 1999, published 2001)

Tests used:
[1] = system: Jurkat cell adherence to FN; experiment: Jurkat cell adherence to fibronectin (calcein-AM fluorescence); assay type: cell-based; settings: for reversal of the inhibitory effect of lovastatin on PMA-stimulated Jurkat cell adhesion: co-incubated with lovastatin 2.5 days
Experimental: (§1) Briefly, Jurkat and U937 cells (American Type Culture Collection; Manassas Va.) were maintained in Earles Modified Eagles Medium (EMEM; M. A. Bioproducts, Walkersville, Md.) supplemented with 10% fetal bovine serum (FBS; Hyclone Laboratories Inc.; Logan Utah), 5 mM glutamine (Life Technologies Inc.; Gaithersburg Md.), 5 mM sodium pyruvate (Life Technologies), and […] (Life Technologies). Lovastatin (Calbiochem; San Diego Calif.) was converted to open acid form before use. […] The solution was heated to 50° C. for two hours. To this heated solution, 4.5 ml of an aqueous solution containing 81 mM NaH2PO4 and […] was added. The solution was heated to 40° C. for 30 min and the pH was adjusted to 7.3 with concentrated HCl. The final concentration was determined by UV spectroscopy (ε231 =21,490 M^−1cm^−1). The stock solution was frozen in small aliquots.
Cell adhesion of Jurkat cells and U937 cells to fibronectin (FN) or laminin (LN), respectively, was measured. Human FN (1.25 μg/ml)(Collaborative Research Inc.; Bedford Mass.) or human LN (100 μg/ml)(Life Technologies) was coated onto 96-well PRO-BIND assay plate (Falcon; Becton Dickinson; Lincoln Park N.J.) by incubating overnight at 4° C. The plate was then blocked with 3% bovine serum albumin (BSA) in phosphate buffered saline (PBS) at room temperature for one hour. Immediately before use, plates were washed three times with PBS.
(§2) After centrifugation for seven min at 300 xg, cells were resuspended in 1 ml phenol red-free medium and then labeled by incubation with 5 μl of the fluorescent dye calcein-AM (1 mg/ml in DMSO; Molecular Probes; Eugene Oreg.) for 30 min at room temperature in the dark. The cells were then washed twice with phenol red-free medium. After incubation with phorbol 12-myristate 13--acetate (PMA) (100 ng/ml) (Sigma; St. Louis Mo.), which is an activator of protein kinase C (PKC), or MAb 8A2 (2 μg/ml) for 30 min in control medium at room temperature, cells (˜1×10^5/well) were added to triplicate wells. After incubation for 30 min at 37° C., the total cells in the well were analyzed using a fluorescence plate reader (PerSeptive Biosystem; Framingham Mass.). Unbound cells were removed by washing the plate three times with phenol red-free medium, and the plate was then reanalyzed to determine fluorescence of bound cells. After subtraction of background, the percent adherence was calculated as the emission at 530 nm of bound cells divided by the […] of total cells.

RhoA = RhoA immunoblot (electrophoretic mobility as measure of isoprenylation) in Jurkat cells; assay type: cell-based
Experimental: Cell lysates were subjected to immunoblot analysis to assess RhoA electrophcoretic mobility as a measurement of isoprenylation. For RhoA blots, membranes were sequentially incubated with rabbit anti-RhoA antibody (Santa Cruz Biotechnology, Inc.) in TBST at room temperature for three hours, washed with TBST five times, incubated with goat anti-rabbit IgG (H+L) conjugated with horse radish peroxidase (HRP) (Bio-Rad Laboratories; Hercules Calif.) for one hour, and then washed with TBST five times. RhoA bands were visualized on x-ray film by incubation of membrane with chemiluminescence luminol reagent (Santa Cruz Biotechnology) at room temperature for one minute.

ERK1 = experiment: Immunoblot for phosphorylated ERK1 in PMA-treated Jurkat cells; assay type: cell-based
[2] = Mouse hind limb ischemia and reperfusion, leg diameter; assay type: in vivo; settings: 7 μg/g i.p. at beginning of 30 min ischemia; 24 hours; t-test
Experimental: Briefly, mice were anesthetized with halothane. A tourniquet was then placed on one hind limb to completely occlude blood flow and kept in place for 30 min. Body temperature was maintained at 37° C. with a heating blanket during the period of ischemia. Perfusion of the hind limb was re-established by removal of the tourniquet, and leg diameter was measured hourly for the next 6 hours and again at 24 hours.

[3] = system: U937 cell adherence to LN; experiment: U937 cell adherence to laminin (calcein-AM fluorescence); assay type: cell-based
Experimental: as §1
Cell adhesion of Jurkat cells and U937 cells to fibronectin (FN) or laminin (LN), respectively, was measured. Human FN (1.25 μg/ml)(Collaborative Research Inc.; Bedford Mass.) or human LN (100 μg/ml)(Life Technologies) was coated onto 96-well PRO-BIND assay plate (Falcon; Becton Dickinson; Lincoln Park N.J.) by incubating overnight at 4° C. […]
as §2, with “The cells were then washed twice with phenol red-free medium. After incubation with phorbol 12-myristate 13--acetate (PMA) (100 ng/ml) (Sigma; St. Louis Mo.), which is an activator of protein kinase C (PKC), or MAb 8A2 (2 μg/ml) for 30 min in control medium at room temperature, cells (˜1×10^5/well) were added to triplicate wells.” left out

[4] = system: neutrophil (PMN) and mononuclear cell migration into lung; experiment: LPS-induced pulmonary inflammation in mice, cell counts in lung lavage fluid; assay type: in vivo
Experimental: (§3) Pulmonary inflammation was induced in mice using a technique similar to that reported by others (Szarka et al., J. Immunol. Methods 202:49-57 (1997)). Briefly, mice were anesthetized with halothane, then 2.5 μl/g was placed into their nares where it was rapidly taken into the trachea and deep into the lungs. […] Compounds were administered in a given amount per g of mouse body weight. In a second set of experiments, PMA (50 ng/μl final concentration; 5 mg/ml stock solution in dimethyl sulfoxide) was used in place of LPS. Mice were allowed to recover from anesthesia and returned to their cages with free access to food and water.
At either 24 (LPS and PMA) or 48 (LPS) hours, mice were returned to the laboratory and killed, their chest rapidly opened, then both lungs were lavaged with 0.5 ml of normal saline followed by a second lavage of another 0.5 ml of normal saline that was lavaged in and out four times. The lavage fluid was combined, total cell counts determined using a hemocytometer, cytospin preparations were then made, the cells stained using the commercial kit (DiffQuik; Baxter Healthcare Corp.; Miami Fla.), and differential cells counts completed. The total number of mononuclear cells and neutrophils in the lavage fluid was determined by counting 100 cells. The number of neutrophils or macrophages was determined by multiplying the percentages by the total cell count. Differences between groups were tested using the computer program Stat View (Abacus Concepts; Berkeley Calif.) by analysis of variances and post hoc testing using Fisher's protected least square differences. Differences were assumed significant for p<0.05. The lavage fluid remaining after cytospin and cell counts was subjected to centrifugation, and the supernatant collected and frozen at −20° C. for later cytokine analysis. […] Thus, lavage fluid was derived from regions where LPS was deposited as well as those regions receiving no challenge.
The LPS was given at the same time as the last dose of lovastatin by i.n. instillation as described above. […] Mice were returned to their cages with free access to food and water for 24 hours, then returned to the laboratory and killed. Lavage was performed and cell counts completed as described above.

[5] = system: neutrophil (PMN) and mononuclear cell migration into lung; experiment: PMA-induced pulmonary inflammation in mice, cell counts in lung lavage fluid; assay type: in vivo; settings: i.n. lovastatin 7.0 μg/g with i.n. PMA; 24 hours
Experimental: as §3
At either 24 (LPS and PMA) or 48 (LPS) hours, mice were returned to the laboratory and killed, their chest rapidly opened, then both lungs were lavaged with 0.5 ml of normal saline followed by a second lavage of another 0.5 ml of normal saline that was lavaged in and out four times. The lavage fluid was combined, total cell counts determined using a hemocytometer, cytospin preparations were then made, the cells stained using the commercial kit (DiffQuik; Baxter Healthcare Corp.; Miami Fla.), and differential cells counts completed. The total number of mononuclear cells and neutrophils in the lavage fluid was determined by counting 100 cells. The number of neutrophils or macrophages was determined by multiplying the percentages by the total cell count. […]

KC = KC chemokine ELISA in lung lavage fluid of LPS-challenged mice; assay type: in vivo, murine
Experimental: (§4) Lavage fluids were used to measure cytokine production. The murine chemoattractant KC is a member of the CXC chemokine family of inflammatory cytokines and was measured by ELISA (R&D Systems; Minneapolis Minn.). The pro-inflammatory cytokine murine TNFα was also measured by ELISA (R&D Systems). The protocol for both assays was similar. Briefly, assay diluent was mixed with sample, which was the lavage fluid obtained as described in Example IV. The diluent was added to the appropriate capture plate and incubated for two hours. Plates were washed, incubated with conjugated anti-KC or anti-TNFα antibody for two hours, washed again, and then incubated with substrate for 30 min. A stop solution was then added, and the optical density determined by plate reader.

TNFα = TNFα ELISA in lung lavage fluid of LPS-challenged mice; assay type: in vivo, murine
Experimental: as §4

## CC(C)=CCC/C(C)=C/CC/C(C)=C/CO [FOH, trans, trans-farnesol]
[1]
  reversal of the inhibitory effect of lovastatin on PMA-stimulated Jurkat cell adhesion: not

## CC(C)=CCC/C(C)=C/CC/C(C)=C/CC/C(C)=C/CO [GGOH, all trans-geranylgeraniol]
[1]; 10 μM lovastatin (FIG. 3B)
  concentration required to rescue Jurkat cell from the inhibitory effect of lovastatin: 2.5 µM
[1]
  reversal of the inhibitory effect of lovastatin on PMA-stimulated Jurkat cell adhesion: reversed
RhoA; GGOH 5 μM with lovastatin
  RhoA migration on addition with lovastatin: more rapid migration of RhoA as seen in untreated cells

## COc1cccc(-c2cc(=O)c3ccccc3o2)c1N [PD-98059]
ERK1; Jurkat cells pre-incubated 30 min with MEK-1 inhibitor before PMA
  ERK1 phosphorylation: completely blocked
[1]; 10 μM, 30 min pre-incubation before PMA
  PMA-stimulated Jurkat cell adherence: did not inhibit

## CC[C@H](C)C(=O)O[C@H]1C[C@@H](C)C=C2C=C[C@H](C)[C@H](CC[C@@H]3C[C@@H](O)CC(=O)O3)[C@H]21 [lovastatin]
[2]
  leg diameter after ischemia and reperfusion, vehicle vs lovastatin: significantly larger diameter than the lovastatin treated leg
ERK1; Jurkat cells, lovastatin 2.5 days, concentrations up to 40 μM, PMA 100 ng/ml 30 min
  PMA-stimulated MAPK (ERK1) phosphorylation: does not inhibit
[1]; 8A2 2 μg/ml, 2.5 days pretreatment
  effect on mAb 8A2-stimulated Jurkat cell adherence to FN: no significant effect
[1]; concentration greater than 5 μM, 2.5 days pretreatment
  inhibition of PMA-stimulated Jurkat cell adherence to FN: nearly completely inhibited
[3]; lovastatin pretreatment, 8A2 2 μg/ml
  inhibition of mAb 8A2-stimulated adherence of U937 cells to LN: not
[3]; lovastatin pretreatment, PMA 100 ng/ml
  inhibition of PMA-stimulated adherence of U937 cells to LN: inhibited
[3]; no pretreatment
  effect on stimulated adherence when added at the time of the adhesion assay instead of pretreating: without effect
[4]; i.n. lovastatin 0.7 μg/g with i.n. LPS, 24 hours
  percent of PMNs in lavage fluid compared with the control group: 74%
[4]; i.n. lovastatin 0.7 μg/g with i.n. LPS, 48 hours
  percent of PMNs in lavage fluid compared with the control group: 75%
[4]; i.n. lovastatin 1.4 μg/g with i.n. LPS, 24 hours
  percent of PMNs in lavage fluid compared with the control group: 28%
[4]; i.n. lovastatin 1.4 μg/g with i.n. LPS, 48 hours
  percent of PMNs in lavage fluid compared with the control group: 32%
[4]; i.n. lovastatin 7.0 μg/g with i.n. LPS, 24 hours
  percent of PMNs in lavage fluid compared with the control group: 4%
[4]; i.n. lovastatin 7.0 μg/g with i.n. LPS, 48 hours
  percent of PMNs in lavage fluid compared with the control group: 5%
[4]; i.n. lovastatin with i.n. LPS, 24 hours
  total number of lavage mononuclear leukocytes: no effect
[4]; i.n. lovastatin with i.n. LPS, 48 hours, differences not statistically significant
  number of mononuclear leukocytes in lavage fluid: somewhat less
[4]; i.p. lovastatin 7.0 μg/g daily x3, i.n. LPS, 24 hours, p<0.05
  number of PMNs accumulating, percent of control group: 30%
[4]; i.p. lovastatin 7.0 μg/g, i.n. LPS, 24 hours
  number of mononuclear leukocytes in lavage fluid: not different between groups
[5]
  inhibition of PMN emigration: ~100%
  mononuclear cell number, control vs lovastatin treatment: no difference
KC; i.n. lovastatin, 24 hours after LPS, 7.0 μg/g group significantly different from control
  concentration of KC chemokine in the lavage fluid: reduced
KC; i.n. lovastatin, 48 hours after LPS, four groups
  KC concentration in the lavage fluid: not different
KC; i.p. lovastatin pretreatment, 24 hours after i.n. LPS
  KC concentration in the lavage fluid: significant reduction
RhoA; 14 μM lovastatin
  isoprenylation state of RhoA: Most RhoA was in non-isoprenylated form
RhoA; Jurkat cells, 2.5 days
  concentration at which geranylgeranylation of RhoA was significantly inhibited: ≥ 0.5 µM
TNFα; i.n. lovastatin, 24 hours, all doses significant vs control
  TNF concentration in lavage fluid: reduced in a dose-dependent manner
TNFα; i.n. lovastatin, 48 hours
  TNF concentration in lavage fluid, differences from control: not significant
TNFα; i.p. lovastatin, 24 hours after i.n. LPS, statistically significant
  TNF production: effective in preventing TNF production
